# Laboratory results reported in PMC4608773, “Elisidepsin Interacts Directly with Glycosylceramides in the Plasma Membrane of Tumor Cells to Induce Necrotic Cell Death” (PLoS ONE, 2015).
# Like-named read-outs stand apart in the source and are kept apart here.
# Experiments:
# [1] = system: HCT-116-Irv cells (elisidepsin-resistant subline); test: cells; conditions: for IC50: read-out: HCT-116-Irv (IC50), cell growth half-maximal inhibitory concentration; for RR (resistance ratio): fold change between IC50 values from HCT-116-Irv and HCT-116: negative values where HCT-116-Irv is the more sensitive line
# Description: B16 and GM95 cells were maintained in DMEM with the same supplements and conditions.
# (§1) Cells were seeded in 96-well microtiter plates and maintained at 37°C and 5% CO2 in drug-free medium before treatment with vehicle alone or elisidepsin at the concentrations and times indicated in the text. For cell survival quantification, a colorimetric assay using SRB was used. Briefly, after treatment, cells were washed twice with phosphate buffered saline (PBS), fixed for 25 min in 1% glutaraldehyde solution, rinsed twice with PBS, stained in 0.4% SRB-1% acetic acid solution for 30 min, rinsed several times with 1% acetic acid solution, and air-dried. […] Results are expressed as percentage of control cell survival and represent the mean of at least three independent experiments. IC50, half-maximal inhibitory concentration, was used as a reference value.
# [2] = system: HCT-116 cells; test: cells
# Description: as §1
# [3] = system: GM95 cells (UGCG-deficient B16 mutant); test: Cell viability assay (SRB colorimetric); type: cell-based, mouse; conditions: for IC50: read-out: GM95 (IC50), cell growth half-maximal inhibitory concentration; for RR: fold change between IC50 values from GM95 and B16: negative values where GM95 is the more sensitive line
# Description: as §1
# [4] = system: B16 cells; test: Cell viability assay (SRB colorimetric); type: cell-based, mouse
# Description: as §1
# [5] = target: Elisidepsin; test: FRET or BRET; two-photon FLIM-FRET, phasor analysis, on live HCT-116 cells in Tyrode-glucose buffer; mix of donor Irv-OG488 200 nM, acceptor Irv-A555 800 nM and elisidepsin 3 μM added to the cells; assemblies seen in the plasma membrane
# [6] = Homo sapiens, HCT-116, read-out: HCT-116 (IC50), cell growth half-maximal inhibitory concentration
# [7] = SRB assay, mean of three different experiments
# [8] = SRB assay, mean of three different experiments, read-out: B16 (IC50), cell growth half-maximal inhibitory concentration
# [9] = SRB assay, 96-well, mean of three different experiments, exposure time not given
# [10] = read-out: HCT-116 (IC50), cell growth half-maximal inhibitory concentration, SRB assay, 96-well, mean of three different experiments, exposure time not given
# [11] = Mus musculus, B16, read-out: B16 (IC50), cell growth half-maximal inhibitory concentration
Compound,IC50 ([1]; Homo sapiens) [nM],RR (resistance ratio): fold change between IC50 values from HCT-116-Irv and HCT-116 [1],"IC50 [2, 6] [nM]",RR: fold change between IC50 values from GM95 and B16 [3],further results
CCCCCCCCCCCCCCCCCCOCC(COP(=O)([O-])OCC[N+](C)(C)C)OC (stereo not shown) [Edelfosine],29000,1.0,29000,,
C[C@@H]1[C@H](O)[C@@H](C)/C=C/C=C/C=C/C=C/C=C/C=C/C=C/[C@H](O[C@@H]2O[C@H](C)[C@@H](O)[C@H](N)[C@@H]2O)C[C@@H]2O[C@](O)(C[C@@H](O)C[C@@H](O)[C@H](O)CC[C@@H](O)C[C@@H](O)CC(=O)O[C@H]1C)C[C@H](O)[C@H]2C(=O)O [Amphotericin B],6100,1.2,5200,,
Syringomycin E,,-1.4,,-1.3,"IC50 [3, 7]: 9000 nM; IC50 [4, 8]: 11000 nM; IC50 [1, 9]: 15000 nM; IC50 [2, 10]: 20000 nM"
N.N.[Cl][Pt][Cl] [Cisplatin],,-2.7,,-2.0,"IC50 [3, 7]: 9400 nM; IC50 [4, 8]: 18000 nM; IC50 [1, 9]: 3600 nM; IC50 [2, 10]: 9800 nM"
CC(=O)O[C@H]1C(=O)[C@@]2(C)[C@H]([C@H](OC(=O)c3ccccc3)[C@]3(O)C[C@H](OC(=O)[C@H](O)[C@@H](NC(=O)c4ccccc4)c4ccccc4)C(C)=C1C3(C)C)[C@]1(OC(C)=O)CO[C@@H]1C[C@@H]2O [Paclitaxel],8.3,1.2,6.9,2.2,"IC50 ([3]; Mus musculus): 34 nM; IC50 [4, 11]: 15 nM"
CO[C@@]12[C@H](COC(N)=O)C3=C(C(=O)C(C)=C(N)C3=O)N1C[C@@H]1N[C@@H]12 [Mitomycin C],300,,330,-2.3,"IC50 ([3]; Mus musculus): 2500 nM; IC50 [4, 11]: 5700 nM"
COc1cc([C@@H]2c3cc4c(cc3[C@@H](O[C@@H]3O[C@@H]5CO[C@@H](C)O[C@H]5[C@H](O)[C@H]3O)[C@H]3COC(=O)[C@H]23)OCO4)cc(OC)c1O [Etoposide],960,,1200,,
CC[C@]1(O)C[C@@H]2CN(CCc3c([nH]c4ccccc34)[C@@](C(=O)OC)(c3cc4c(cc3OC)N(C)[C@H]3[C@@](O)(C(=O)OC)[C@H](OC(C)=O)[C@]5(CC)C=CCN6CC[C@]43[C@@H]65)C2)C1 [Vinblastine],0.41,1.3,0.32,,
Nc1ccn([C@@H]2O[C@H](CO)[C@@H](O)C2(F)F)c(=O)n1 [Gemcitabine],0.67,1.1,0.63,1.4,"IC50 ([3]; Mus musculus, SRB assay, mean of three different experiments): 8.1 nM; IC50 ([4]; Mus musculus, B16, SRB assay, mean of three different experiments, read-out: B16 (IC50), cell growth half-maximal inhibitory concentration): 5.6 nM"
COc1cccc2c1C(=O)c1c(O)c3c(c(O)c1C2=O)C[C@@](O)(C(=O)CO)C[C@@H]3O[C@H]1C[C@H](N)[C@H](O)[C@H](C)O1 [Doxorubicin],99,,140,-1.9,"IC50 ([3]; Mus musculus): 94 nM; IC50 [4, 11]: 180 nM"
COc1cc2c(c(OC)c1OC)-c1ccc(OC)c(=O)cc1[C@@H](NC(C)=O)CC2 [Colchicine],2.8,,3.9,,
"O=c1[nH]cc(F)c(=O)[nH]1 [5-FU, 5-fluorouracil]",11000,2.8,4000,,
Elisidepsin (peptide),,,,,FRET efficiency [5]: 60%
CCC1=C[C@@H]2CN(C1)Cc1c([nH]c3ccccc13)[C@@](C(=O)OC)(c1cc3c(cc1OC)N(C)[C@H]1[C@@](O)(C(=O)OC)[C@H](OC(C)=O)[C@]4(CC)C=CCN5CC[C@]31[C@@H]54)C2 [Vinorelbine],190,1.1,160,,
CC(=O)O[C@@]12CO[C@@H]1C[C@H](O)[C@@]1(C)C(=O)[C@H](O)C3=C(C)[C@@H](OC(=O)[C@H](O)[C@@H](NC(=O)OC(C)(C)C)c4ccccc4)C[C@@](O)([C@@H](OC(=O)c4ccccc4)[C@H]21)C3(C)C [Docetaxel],1.8,,2.9,,
C#Cc1cccc(Nc2ncnc3cc(OCCOC)c(OCCOC)cc23)c1 [Erlotinib],16000,,32000,,
C/C(=C\c1csc(C)n1)[C@@H]1C[C@@H]2O[C@]2(C)CCC[C@H](C)[C@H](O)[C@@H](C)C(=O)C(C)(C)[C@@H](O)CC(=O)O1 [Epothilone B],3.9,1.8,2.2,,
CN(Cc1cnc2nc(N)nc(N)c2n1)c1ccc(C(=O)N[C@@H](CCC(=O)O)C(=O)O)cc1 [Methotrexate],77,2.1,37,-1.4,"IC50 ([3]; Mus musculus): 370 nM; IC50 [4, 11]: 500 nM"
